This is an account of results in patent US12606836B2, “Process for extracellular secretion of Brazzein” (MAGELLAN LIFE SCIENCES LTD., priority 2016, dated 2026).

Read-outs that look alike come from different tables or passages of the source.

The subject of one data set is taste panel. Description: Sensory analysis of purified Brazzein (taste panel, sweetness threshold versus sucrose). Particulars: for Experimental Threshold: first sample sensed as sweet, 200 microliter applied to anterior tongue, 30 tasters; for Relative Sweetness (by weight): relative to sucrose, 1% (w/v) sucrose reference. The format is in vivo, humans. The procedure: A portion of the purified Brazzein (A28D) was lyophilized and re-dissolved in deionized water to 1.0 mg/mL. From this, Brazzein (A28D) solutions with following concentrations were made: 0.5, 1.0, 2.0, 3.0, 4.0, 5.0, 6.0, 7.0, 8.0, 9.0, and 10.0 μg/mL. A 1% (w/v) sucrose solution, the lowest concentration of sucrose detectable by humans, was used as a reference. The taste panel consisted of fifteen females and fifteen males with normal health and normal sense of taste. Two-hundred-microliter samples were applied to the anterior region of the tongue. After each test, the mouth was rinsed with tap water. The tasters sampled from the lower concentration samples to higher. Each taster chose the first sample that could be sensed for sweetness. Sweetness potencies were reported relative to sucrose on a weight basis.

For data set [1] the following is noted: cited from earlier work.
A short description of data set [2]: Thermal stability of secreted Brazzein (heating of cell free supernatant, SDS-PAGE). The format is physicochemical. Particulars: cell free supernatant heated at 80° C. for 60 mins, centrifuged at 17,500 g, FIG. 11. How it is done:
Protein expression was analyzed by SDS-PAGE on 15% Tris-Glycine gels. To analyze protein in the cell culture medium, 17 μL of cell free supernatant (corresponding to 0.07% of total culture volume) was mixed with 17 μL of 2× reducing sample buffer, heated for 5 mins in a PCR machine, briefly spun and loaded into the gel. The gel was run at a constant voltage of 125V till the dye front exited the gel. The gels were washed in MILLI-Q® water for 1 hour and stained with Coomassie Stain. To analyze protein in whole cells, frozen cell pellets were thawed, re-suspended in 50 μL of MILLI-Q*water. 17 μL of resuspended cells were mixed with 17 μL of 2× Reducing Sample Buffer, heated for 5 mins in a PCR machine, briefly spun and loaded into the gel. The gel was run at constant voltage of 125V till the dye front exited it. The gels were washed in MILLI-Q*water for 1 hour and stained with Coomassie Stain.
[…] The supernatant was analyzed by SDS-PAGE. Protein quantitation was done using BCA assay kit. As a result of heating, most of the endogenous E. coli proteins present in the cell free supernatant precipitated, leaving >90% pure Brazzein in solution.

Take `OC[C@H]1O[C@@](CO)(O[C@H]2O[C@H](CO)[C@@H](O)[C@H](O)[C@H]2O)[C@@H](O)[C@@H]1O` [Sucrose, reference compound]: in the data set with taste panel, the “Experimental Threshold” value worked out at 1 % [g/100 mL] and the “Relative Sweetness (by weight)” value is 1.

Regarding “Brazzein: high-potency thermostable sweet protein, originally isolated from the fruit of Pentadiplandra brazzeana Baillon (DKCKKVYENYPVSKCQLANQCNYDCKLDKHARSGECFYDEKRNLQCICDYCEY; Synthetic: Amino Acid Sequence of pelB-Brazzein(A28D))”, the sweeter than sucrose in data set [1] (in comparison to 2% sucrose aqueous solution) is 2,500 times; in data set [1] (in comparison to 10% sucrose) it was 500 times. In addition, the “thermal stability: Brazzein in soluble supernatant after heating” value in data set [2] was “Presence of Brazzein in lanes 1 and 2”.

B1: Brazzein(A28D): wild-type TypeIII Brazzein; residue 50 of pelB-Brazzein mutated from Alanine to Aspartate; mature protein from Seq Id No. 8 (protein)
chain: MKYLLPTAAAGLLLLAAQPAMADKCKKVYENYPVSKCQLANQCNYDCKLDKHARSGECFYDEKRNLQCICDYCEY
modifications: misc_feature 1..234 Synthetic: nucleotide Sequence encoding pelB conjugated to Brazzein(A28D)
For B1, in the data set on taste panel, the “Experimental Threshold” value amounted to 0.0006 % [g/100 mL] and the “Relative Sweetness (by weight)” value came to 1660. Also, the “sweeter than sucrose on a weight basis” value in the data set with taste panel (relative to 1% (w/v) sucrose reference) came to 1660 times.
